Several values for one entry are separate records, joined by “and”; a condition that tells them apart may be missing. Identical values can stand only once. Like-named read-outs stand apart in the source and are kept apart here.
What was measured:
[1] = Single dose oral PK study in male Sprague Dawley rats (plasma by LC-MS/MS); assay type: in vivo; settings: for Plasma concentration of PRX-002 (−) Isomer: PRX-002 (−) Isomer oral 5 mg/kg b.w.
Method: We describe here PK results of prodrugs of PRX-002 (−) or (+) isomers. All doses of prodrugs were administered such that they were equivalent to 5 mg/kg of PRX-002 (−) or (+) for oral studies and 2 mg/kg PRX-002 (−) or (+) for intravenous studies in male Sprague-Dawley (MSD) rats. Higher doses of up to 10 or 15 mg/kg [again equivalent to PRX-002 (−)] were used in some studies (as specified)]. Formulation preparation, dose administration and time of sample collection was as follows.
Test item was weighed [5 mg equivalent dose of PRX-002 for prodrugs] and transferred to a graduated tube. Then 10 μL of Tween 80 was added and vortexed mixed until the test item was completely mixed. Small volume of 0.5% (w/v) carboxymethylcellulose in water solution was then added dropwise with continuous vortex mixing until a uniform suspension was obtained. The final volume was then made up to 10 mL with 0.5% (w/v) carboxymethylcellulose in water with final strength of 0.5 mg/mL. […] This formulation was freshly prepared before the administration to animals.
(§1) Adult male Sprague Dawley Rats aged 8-10 weeks were used for the study. Fasted animals were administered test item by oral route with a dose of 5 mg/kg body weight at dose volume of 10 mL/kg body weight. Under mild isoflurane anesthesia, blood specimens were collected by retro-orbital puncture method using capillary tubes into pre-labeled tubes containing anticoagulant (K2EDTA-2 mg/mL blood) during the next 24 hours of post dose as mentioned in below table. For blood sampling at multiple time points, right and left eyes were used alternatively for blood collection. Collected blood specimens were centrifuged at 4000 rpm, 4° C. for 10 minutes and plasma were separated and stored at −80° C. until analysis.
Blood was collected as outlined in Table 39.1 (oral).
(§2) Test item PRX-P4-003 was weighed and transferred to a graduated tube. Then 12.42 μL of Tween 80 was added and vortexed mixed until the test item was completely mixed. Small volume of 0.5% (w/v) Carboxymethylcellulose in water solution was then added dropwise with continuous vortex mixing until a uniform suspension was obtained. The final volume was then made up to 12.42 mL with 0.5% (w/v) Carboxymethylcellulose in water with final strength of 1.0 mgA/mL. […] This formulation was freshly prepared before the administration to animals.
as §1, with “with a PRX-P4-003” for “test item”, “10” for “5”
as §2, with “PRX-P5-006” for “PRX-P4-003”, “10” for “12.42”, “3.97 mg/mL.” for “1.0 mgA/mL.”
Adult male Sprague Dawley Rats aged 8-10 weeks were used for the study. Fasted animals were administered with a PRX-P5-006 by oral route with a dose of 15 mg/kg body weight at dose volume of 10 mL/kg body weight. […]

[2] = tested on: spontaneous locomotor activity; experiment: Spontaneous locomotor activity (sLMA), intravenous administration; assay type: in vivo, Male SD rats; settings: i.v. 2 mg/kg, 90 min recording, vs vehicle
Method: Male SD rats were intravenously administered with PRX-002(−) (2 mg/kg) and prodrug PRX-P4-003 [(25.8 mg/kg, equivalent to 10 mg/kg of PRX-002 (−)], and vehicle just before sLMA test.
Vehicle was: 10% PEG 400 (v/v)+30% (v/v) of (50% w/v) Hydroxypropyl-ß-cyclodextrin in water+60% (v/v) sterile water for injection (SWFI): 1 ml/kg volume.
PRX-P4-003 solution was: 25.8 mg/ml PRX-P4-003 (25.8 mg/kg: equivalent to 10 mg/ml active drug, i.v. @volume of 1 ml/kg). 42.3 mg PRX-P4-003 was added to vehicle 1.639 ml, vortexed for 30 min under room temperature to get a uniform suspension solution, suspension solution was continuously stirred during dosage.
The PRX-P4-002(−) solution was: 2 mg/ml PRX-P4-002(−) (2 mg/kg, i.v.@volume of 1 ml/kg). 4.5 mg PRX-002(−) was added to 2.25 ml Vehicle, vortexed for 30 min under room temperature to get a clear solution, the solution was continuously stirred during dosage.
Rat was placed at the center of test chamber for the 90 min sLMA video recording. (n=3/group).

[3] = single oral dose 5 mg/kg body weight, individual animals (R0175, R0176, R0177), plasma, 5 mg/kg

CCN[C@H]1[C@H]2CC[C@H](C2)[C@@H]1c1ccccc1 [PRX-002 (+) Isomer, (1S,2S,3R,4R)—N-Ethyl-3-phenylbicyclo[2.2.1]heptan-2-amine, reference compound]
AUC% extrap of PRX-002(+) Isomer ([1]; PRX-002 (+) Isomer oral 5 mg/kg, mean, listed as PRX-002(+) Isomer, 5 mg/kg): 18.063 ±11.646% | AUC% extrap of PRX-002(+) Isomer ([1]; PRX-002 (+) Isomer oral 5 mg/kg, mean, listed as PRX-002 (+isomer), 5 mg/kg): 18.063 ± 11.646% | AUC(0-inf) ([1]; male, Sprague Dawley, rat, in vivo, po, 5 mg/kg, single oral dose 5 mg/kg b.w., mean plasma PK parameters (mean ± SD), read-out: AUCinf): 151 ± 68.6 ng·h/mL | AUC(0-t) ([1]; male, Sprague Dawley, rat, in vivo, po, 5 mg/kg, single oral dose 5 mg/kg b.w., mean plasma PK parameters (mean ± SD), read-out: AUClast): 128 ± 74.2 ng·h/mL | Cmax ([1]; male, Sprague Dawley, rat, in vivo, po, 5 mg/kg, single oral dose 5 mg/kg b.w., mean plasma PK parameters (mean ± SD), read-out: Cmax): 107 ± 25.4 ng/mL | MRT last ([1]; male, Sprague Dawley, rat, in vivo, po, 5 mg/kg, single oral dose 5 mg/kg b.w., mean plasma PK parameters (mean ± SD), read-out: MRTlast): 57.4 ± 16.1 min | half-life ([1]; male, Sprague Dawley, rat, in vivo, po, 5 mg/kg, single oral dose 5 mg/kg b.w., mean plasma PK parameters (mean ± SD), read-out: T1/2 (converted)): 59.5 ± 13.7 min | Cmax ([1]; male, Sprague Dawley, rat, in vivo, po, 5 mg/kg, single oral dose 5 mg/kg body weight, individual animals (R0175, R0176, R0177), plasma, read-out: Cmax): 135 ng/mL | MRT last ([1]; male, Sprague Dawley, rat, in vivo, po, 5 mg/kg, single oral dose 5 mg/kg body weight, individual animals (R0175, R0176, R0177), plasma, read-out: MRTlast): 75.6 min | half-life ([1]; male, Sprague Dawley, rat, in vivo, po, 5 mg/kg, single oral dose 5 mg/kg body weight, individual animals (R0175, R0176, R0177), plasma, read-out: T1/2 (converted)): 64.2 min | AUC(0-inf) ([1]; male, Sprague Dawley, rat, in vivo, po, 5 mg/kg, single oral dose 5 mg/kg body weight, mean of N=3 (Table 39.24), read-out: AUCinf): 151 ng·h/mL | AUC(0-t) ([1]; male, Sprague Dawley, rat, in vivo, po, 5 mg/kg, single oral dose 5 mg/kg body weight, mean of N=3 (Table 39.24), read-out: AUClast): 128 ng·h/mL | Cmax ([1]; male, Sprague Dawley, rat, in vivo, po, 5 mg/kg, single oral dose 5 mg/kg body weight, mean of N=3 (Table 39.24), read-out: Cmax): 107 ng/mL | MRT last ([1]; male, Sprague Dawley, rat, in vivo, po, 5 mg/kg, single oral dose 5 mg/kg body weight, mean of N=3 (Table 39.24), read-out: MRTlast): 57.4 min | half-life ([1]; male, Sprague Dawley, rat, in vivo, po, 5 mg/kg, single oral dose 5 mg/kg body weight, mean of N=3 (Table 39.24), read-out: T1/2 (converted)): 59.5 min | Tmax ([1]; male, Sprague Dawley, rat, in vivo, single oral dose 5 mg/kg body weight, individual animals (R0175, R0176, R0177), plasma, read-out: Tmax): 30 min | AUC(0-inf) ([1]; male, Sprague-Dawley, rat, in vivo, po, 5 mg/kg, PRX-002 (+) Isomer oral 5 mg/kg, mean, read-out: AUCinf of PRX-002(+) Isomer): 151 ± 68.6 ng·h/mL | AUC(0-t) ([1]; male, Sprague-Dawley, rat, in vivo, po, 5 mg/kg, PRX-002 (+) Isomer oral 5 mg/kg, mean, read-out: AUClast of PRX-002(+) Isomer): 128 ± 74.2 ng·h/mL | Cmax ([1]; male, Sprague-Dawley, rat, in vivo, po, 5 mg/kg, PRX-002 (+) Isomer oral 5 mg/kg, mean, read-out: Cmax of PRX-002(+) Isomer): 107 ± 25.4 ng/mL | MRT last ([1]; male, Sprague-Dawley, rat, in vivo, po, 5 mg/kg, PRX-002 (+) Isomer oral 5 mg/kg, mean, read-out: MRTlast of PRX-002(+) Isomer): 57.4 ± 16.1 min | half-life ([1]; male, Sprague-Dawley, rat, in vivo, po, 5 mg/kg, PRX-002 (+) Isomer oral 5 mg/kg, mean, read-out: T1/2 of PRX-002(+) Isomer (converted)): 59.5 ± 13.7 min | Tmax ([1]; male, Sprague-Dawley, rat, in vivo, PRX-002 (+) Isomer oral 5 mg/kg, mean, read-out: Tmax of PRX-002(+) Isomer): 30 min | AUC% extrap ([1]; single oral dose 5 mg/kg b.w., mean plasma PK parameters (mean ± SD)): 18.063 ± 11.646% | AUC% extrap [1, 3]: 6.89% and 30.13% and 17.17% | AUCinf [1, 3]: 229.43 ng·h/mL and 124.51 ng·h/mL and 100.4 ng·h/mL | AUClast [1, 3]: 213.62 ng·h/mL and 87 ng·h/mL and 83.16 ng·h/mL | Cmax [1, 3]: 85.44 ng/mL and 99.85 ng/mL | MRTlast [1, 3]: 51.6 min and 45 min | T1/2 [1, 3]: 70.2 min and 44.4 min | AUC% extrap ([1]; single oral dose 5 mg/kg body weight, mean of N=3 (Table 39.24)): 18.063%

CCN[C@@H]1[C@@H]2CC[C@@H](C2)[C@H]1c1ccccc1 [PRX-002 (−) Isomer, (1R,2R,3S,4S)—N-Ethyl-3-phenylbicyclo[2.2.1]heptan-2-amine, reference compound]
Plasma concentration of PRX-002 (−) Isomer ([1]; 0.00 h, mean): 0.00 | Plasma concentration of PRX-002 (−) Isomer ([1]; 0.08 h, mean): 0.00 | Plasma concentration of PRX-002 (−) Isomer ([1]; 0.25 h, mean): 50.20 | Plasma concentration of PRX-002 (−) Isomer ([1]; 0.50 h, mean): 159.35 | Plasma concentration of PRX-002 (−) Isomer ([1]; 1.00 h, mean): 170.35 | Plasma concentration of PRX-002 (−) Isomer ([1]; 2.00 h, mean): 101.07 | Plasma concentration of PRX-002 (−) Isomer ([1]; 4.00 h, mean): 21.30 | Plasma concentration of PRX-002 (−) Isomer ([1]; 6.00 h, mean): 0.00 | Plasma concentration of PRX-002 (−) Isomer ([1]; 24.00 h, mean): 0.00 | AUC% extrap of PRX-002 (−) Isomer ([1]; PRX-002 (−) Isomer oral 5 mg/kg, mean): 12.904 ± 1.8410% | AUC(0-inf) ([1]; male, Sprague Dawley, rat, in vivo, po, 5 mg/kg, PRX-002 (−) Isomer oral 5 mg/kg, mean, read-out: AUCinf of PRX-002 (−) Isomer): 427 ± 122 ng·h/mL | AUC(0-t) ([1]; male, Sprague Dawley, rat, in vivo, po, 5 mg/kg, PRX-002 (−) Isomer oral 5 mg/kg, mean, read-out: AUClast of PRX-002 (−) Isomer): 371 ± 99.5 ng·h/mL | Cmax ([1]; male, Sprague Dawley, rat, in vivo, po, 5 mg/kg, PRX-002 (−) Isomer oral 5 mg/kg, mean, read-out: Cmax of PRX-002 (−) Isomer): 176 ± 47.5 ng/mL | MRT last ([1]; male, Sprague Dawley, rat, in vivo, po, 5 mg/kg, PRX-002 (−) Isomer oral 5 mg/kg, mean, read-out: MRTlast of PRX-002 (−) Isomer): 88.4 ± 6.24 min | half-life ([1]; male, Sprague Dawley, rat, in vivo, po, 5 mg/kg, PRX-002 (−) Isomer oral 5 mg/kg, mean, read-out: T1/2 of PRX-002 (−) Isomer (converted)): 112 ± 7.92 min | Tmax ([1]; male, Sprague Dawley, rat, in vivo, PRX-002 (−) Isomer oral 5 mg/kg, mean, read-out: Tmax of PRX-002 (−) Isomer): 50 ± 17.3 min | Spontaneous locomotor activity (sLMA): total traveling distance and duration [2]: significantly increased sLMA

Reference: patent US10662146B2, “Prodrugs of fencamfamine” (Praxis Bioresearch, LLC, priority 2015, dated 2020)
